Experimental data as given in patent US8513285B2, “3 or 4-substituted piperidine compounds” (SK Biopharmaceuticals Co., Ltd., priority 2008, dated 2013).

Columns and labels:
[1] = molecular target: T1, human serotonin transporter (Homo sapiens, UniProt P31645); assay: Serotonin transporter reuptake inhibition assay; format: cell-based; conditions: HEK293; 100 nM; HEK-293 cells with human serotonin transporter; [3H]Serotonin uptake; read-out: Inhibition % at 100 nM 5-HT reuptake
T1 construct: expressed in transfected cells; host or cells: HEK-293
T1 sequence (P31645 whole entry): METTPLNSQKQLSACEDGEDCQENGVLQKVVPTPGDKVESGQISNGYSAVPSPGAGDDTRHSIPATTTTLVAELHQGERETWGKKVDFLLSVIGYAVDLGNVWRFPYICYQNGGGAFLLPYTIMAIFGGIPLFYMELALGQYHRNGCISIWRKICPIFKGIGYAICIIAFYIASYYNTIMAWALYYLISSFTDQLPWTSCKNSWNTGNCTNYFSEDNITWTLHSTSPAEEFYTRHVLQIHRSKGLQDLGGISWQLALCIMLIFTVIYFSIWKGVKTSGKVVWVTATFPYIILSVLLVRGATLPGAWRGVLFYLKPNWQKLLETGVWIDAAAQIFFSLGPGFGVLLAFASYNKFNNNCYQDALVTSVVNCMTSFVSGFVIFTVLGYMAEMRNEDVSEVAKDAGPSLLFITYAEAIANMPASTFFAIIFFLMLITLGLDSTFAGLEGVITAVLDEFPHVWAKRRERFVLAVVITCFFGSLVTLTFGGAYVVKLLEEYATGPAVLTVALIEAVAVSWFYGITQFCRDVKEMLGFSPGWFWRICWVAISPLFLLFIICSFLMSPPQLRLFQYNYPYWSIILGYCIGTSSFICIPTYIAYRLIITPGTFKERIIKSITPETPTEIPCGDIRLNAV
Procedure: Serotonin Transporter Reuptake Inhibition Assay
The method to test the ability of compounds to inhibit transporters from reuptake of serotonin followed Gu H. et al., J Biol. Chem., 1994, 269, p […].
The recombinant HEK-293 cells with human serotonin transporter were plated. Test compounds were pre-incubated with cells (2×10^5/ml) in modified Tris-HEPES buffer pH 7.1 for 20 minutes at 25° C. and then they were incubated for additional 10 minutes after 65 nM of [^3H]Serotonin was added. Bound cells were filtered and counted to determine [^3H]Serotonin uptake. Reduction of [^3H]Serotonin uptake by 50 percent or more (≧50%) relative to 10 μM fluoxetine indicates significant inhibitory activity. Compounds were screened at 10, 1, 0.1, 0.01 and 0.001 μM for IC50s.

[2] = molecular target: T2, human recombinant dopamine transporter (Homo sapiens, UniProt Q01959); assay: Dopamine transporter reuptake inhibition assay; format: cell-based; conditions: 100 nM; CHO-K1 cells with human dopamine transporter; [3H]Dopamine uptake; read-out: Inhibition % at 100 nM DA reuptake
T2 construct: expressed in transfected cells; host or cells: CHO-K1
T2 sequence (Q01959 whole entry): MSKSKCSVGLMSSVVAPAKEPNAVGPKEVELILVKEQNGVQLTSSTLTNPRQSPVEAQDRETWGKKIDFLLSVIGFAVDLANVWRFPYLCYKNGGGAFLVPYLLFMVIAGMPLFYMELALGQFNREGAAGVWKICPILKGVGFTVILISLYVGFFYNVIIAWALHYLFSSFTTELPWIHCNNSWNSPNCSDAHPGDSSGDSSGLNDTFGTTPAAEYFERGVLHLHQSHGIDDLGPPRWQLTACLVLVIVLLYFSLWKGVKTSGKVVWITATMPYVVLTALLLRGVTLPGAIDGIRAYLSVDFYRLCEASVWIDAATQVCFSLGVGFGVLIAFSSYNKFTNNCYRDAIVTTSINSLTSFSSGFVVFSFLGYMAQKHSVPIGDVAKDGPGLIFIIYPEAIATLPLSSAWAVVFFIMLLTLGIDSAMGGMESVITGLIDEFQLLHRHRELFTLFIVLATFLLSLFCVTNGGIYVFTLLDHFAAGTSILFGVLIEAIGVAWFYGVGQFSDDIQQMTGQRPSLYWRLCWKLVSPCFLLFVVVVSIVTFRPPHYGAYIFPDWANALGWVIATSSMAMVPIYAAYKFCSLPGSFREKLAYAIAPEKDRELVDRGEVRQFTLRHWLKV
Procedure: Dopamine Transporter Reuptake Inhibition Assay
The assay followed the method modified from Pristupa Z. B. et al., Mol. Pharmacol., 1994, p 125˜135.
CHO-K1 cells with human recombinant dopamine transporter were plated. Test compounds were pre-incubated with cells (4×10^5/ml) in modified Tris-HEPES buffer pH 7.1 for 20 minutes at 25° C. and then they were incubated for additional 10 minutes after 50 nM of [^3H]Dopamine was added. A lysate is obtained from solubilized cells and counted to determine [^3H]Dopamine uptake. Reduction of [^3H]Dopamine uptake by 50 percent or more (≧50%) relative to 10 μM nomifensine indicates significant inhibitory activity. Compounds were tested at 10, 1, 0.1, 0.01 and 0.001 μM for IC50s.

[3] = molecular target: T3, human recombinant norepinephrine transporter (Homo sapiens, UniProt P23975); assay: Norepinephrine transporter reuptake inhibition assay; format: cell-based; conditions: 100 nM; MDCK cells with human norepinephrine transporter; [3H]Norepinephrine uptake; read-out: Inhibition % at 100 nM NE reuptake
T3 construct: expressed in transfected cells; host or cells: MDCK
T3 sequence (P23975 whole entry): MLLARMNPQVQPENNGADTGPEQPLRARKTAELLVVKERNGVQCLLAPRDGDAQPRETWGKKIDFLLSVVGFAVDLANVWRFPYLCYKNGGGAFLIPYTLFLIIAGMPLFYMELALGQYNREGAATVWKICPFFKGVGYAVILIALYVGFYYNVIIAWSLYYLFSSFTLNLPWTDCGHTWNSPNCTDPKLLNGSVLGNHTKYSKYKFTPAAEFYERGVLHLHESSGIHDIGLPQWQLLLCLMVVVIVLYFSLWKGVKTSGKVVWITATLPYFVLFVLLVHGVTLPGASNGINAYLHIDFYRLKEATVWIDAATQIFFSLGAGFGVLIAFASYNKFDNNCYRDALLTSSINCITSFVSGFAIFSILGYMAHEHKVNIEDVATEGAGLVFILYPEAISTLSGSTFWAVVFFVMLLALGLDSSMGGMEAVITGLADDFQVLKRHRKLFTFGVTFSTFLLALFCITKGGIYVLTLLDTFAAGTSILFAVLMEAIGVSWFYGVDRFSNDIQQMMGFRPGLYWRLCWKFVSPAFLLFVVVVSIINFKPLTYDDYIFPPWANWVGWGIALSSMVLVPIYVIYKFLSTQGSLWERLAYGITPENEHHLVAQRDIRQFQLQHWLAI
Procedure: Norepinephrine Transporter Reuptake Inhibition Assay
Norepinephrine transporter reuptake inhibition assay used the method described by Galli A. et al., J Exp Biol., 1995, 198, p 2197˜2212.
MDCK cells with stably expressed human recombinant norepinephrine transporter were plated one day. Test compounds were pre-incubated with cells (2×10^5/ml) in modified Tris-HEPES buffer pH 7.1 for 20 minutes at 25° C. and then they were incubated for additional 10 minutes after 25 nM of [^3H]Norepinephrine was added. A lysate was obtained from solubilized cells and the filtered lysate was counted to determine [^3H]Norepinephrine uptake. Reduction of [^3H]Norepinephrine uptake by 50 percent or more (≧50%) relative to 10 μM desipramine indicates significant inhibitory activity. Compounds were screened at 10, 1, 0.1, 0.01 and 0.001 μM to determine their IC50s.

[4] = test system: mice; assay: Forced swimming test in mice (FST); format: in vivo; conditions: Mus musculus, 0.5 h, 30ip, 30 min after administration, vs control group, read-out: Reduction % at 30ip (duration of immobility)
Procedure: Forced Swimming Test in Mice (FST)
The Forced swimming test is an animal model based on the rodent's behavioral repertoire for screening drugs with potential antidepressant activity. As in several other models used for this goal, an uncontrollable stress stimulus produces behavioral changes that are sensitive to antidepressant treatment.
The mice were intraperitoneally treated with the test compound with an injection volume of […]. The group treated with 30% PEG400 served as a control group. Thirty minutes following administration, mice were individually forced to swim in a transparent glass vessel (14 cm high, 11.5 cm in diameter) filled with 10 cm of water at 25° C. The total duration of immobility (second) was measured during the last 4 minutes of a single 6-min test session. Mice were considered immobile when they made no further attempts to escape other than the movements necessary to keep their heads above the water. The potent ability of the compounds was determined as percent value of reduction in the duration of immobility comparing to the control group.

[5] = test system: mice; assay: Marble burying test; format: in vivo; conditions: 30 min after treatment, vs control group
Text: The Marble burying test is a screening tool for putative anxiolytics. In this test, control mice naturally bury glass marbles in the cage bedding and the administration of anxiolytic compounds, including Diazepam, reduces the number of buried marbles. Positive compounds in the marble burying test including selective serotonin reuptake inhibitor may be especially beneficial to obsessive-compulsive disorder.
A group of mice was intraperitoneally treated with test compound dissolved in 30% PEG400 with an injection volume of 10 ml/kg. The group treated with only 30% PEG400 served as a control group. Thirty minutes after the treatment, the animals were individually placed in a polycarbonate cage which was same as used for animal housing with an open top located within a quiet room. Each cage consisted of ⅛ inch corn bedding 5 cm deep. Twenty four clean glass marbles (15 mm diameter) were evenly spaced in four rows of six on top of the bedding. Each mouse was left in the cage for 30 minutes and the number of marbles buried (buried more than ½ or ⅔) was counted. The potent ability of the compounds was determined as percent value of reduction in the number of marbles buried comparing to the control group.

[6] = test system: mice; assay: Acetic acid induced writhing test (AA writhing test); format: in vivo; conditions: 0.8% acetic acid i.p. 30 min later, vs control group
Text: Specially the results of Marble burying test (MB) in mice as noted in Table 3 show the compounds of the invention are related to the treatment of anxiety. Acetic Acid Induced Writhing Test (AA Writhing Test)
The Acetic acid-induced writhing test is a well-established nociceptive test using a chemical stimulus. Although several animal models of nociceptive tests have been developed to examine and compare the anti-nociceptive effects of different drugs, the anti-nociceptive effects of antidepressants appear to be test-dependent. Indeed, the acetic acid-induced writhing test is more sensitive to antidepressants than other tests using thermal, mechanical or electrical stimuli.
The animals were subcutaneously treated with the test compound with an injection volume of 10 ml/kg. The group treated with 30% PEG400 or saline served as a control group. Thirty minutes later, the mice were intraperitoneally treated with 0.8% (v/v) acetic acid. Each mouse was then placed in a cage for individual observation. The writhing numbers for 10 minutes were counted. The writhe is operationally defined as a contraction of the abdomen followed by stretching of the hind limbs. The potent ability of the compounds was determined as percent value of reduction in the number of writhing comparing to the control group.

inhibition at 0.1 µM [1] [%] | inhibition at 0.1 µM [2] [%] | inhibition at 0.1 µM [3] [%] | Compound | inhibition in vivo at 30 mg/kg [4] [%] | Reduction % (number of marbles buried) at 20ip ([5]; 20ip) | Reduction % (number of writhing) at 10sc [6] | Reduction % at 30ip (number of marbles buried) ([5]; 30ip) [%] | Reduction % at 30sc (number of writhing) [6] [%]
86 | 41 | -1 | c1ccc(-c2nnn([C@H](c3ccc4ccccc4c3)[C@H]3CCCNC3)n2)cc1 [Example 75, (3S)-3-[(S)-naphthalen-2-yl-(5-phenyl-tetrazol-2-yl)methyl]piperidine] | – | – | – | – | –
76 | 52 | 70 | c1ccc2cc([C@H]([C@H]3CCCNC3)n3nccn3)ccc2c1 [Example 14, (3S)-3-[(S)-naphthalen-2-yl(2H-1,2,3-triazol-2-yl)methyl]piperidine] | 6.4 | – | – | – | –
95 | 3 | 14 | Clc1ccc2cc([C@@H]([C@H]3CCCNC3)n3ncnn3)ccc2c1 [Example 70, (3S)-3-[(R)-(6-chloronaphthalen-2-yl)(2H-tetrazol-2-yl)methyl]piperidine] | – | – | – | – | –
75 | 99 | 98 | Clc1ccc([C@@H]([C@@H]2CCCNC2)n2ncnn2)cc1Cl [Example 15, (3R)-3-[(R)-(3,4-dichlorophenyl)(2H-tetrazol-2-yl)methyl]piperidine] | 96.5 | – | – | 75.3 | 55.3
94 | 81 | 74 | Cc1ccc2cc([C@H]([C@H]3CCCNC3)n3ncnn3)ccc2c1 [Example 85, (3S)-3-[(S)-(6-methylnaphthalen-2-yl)(2H-tetrazol-2-yl)methyl]piperidine] | 11.3 | – | 46.4% (at 10sc) | – | –
87 | 44 | 39 | c1ccc2cc([C@H]([C@H]3CCCNC3)n3cncn3)ccc2c1 [Example 90, (3S)-3-[(S)-naphthalen-2-yl(1H-1,2,4-triazol-1-yl)methyl]piperidine] | – | – | – | – | –
93 | 35 | -1 | Cc1ccc2cc([C@@H]([C@H]3CCCNC3)n3ncnn3)ccc2c1 [Example 86, (3S)-3-[(R)-(6-methylnaphthalen-2-yl)(2H-tetrazol-2-yl)methyl]piperidine] | 13.4 | – | – | – | –
93 | 93 | 87 | Cc1nnn([C@H](c2ccc3ccccc3c2)[C@H]2CCCNC2)n1 [Example 10, (3S)-3-[(S)-(5-methyl-2H-tetrazol-2-yl)(naphthalen-2-yl)methyl]piperidine] | – | – | – | – | –
96 | 63 | 57 | Clc1ccc2cc([C@H]([C@H]3CCCNC3)n3ncnn3)ccc2c1 [Example 68, (3S)-3-[(S)-(6-chloronaphthalen-2-yl)(2H-tetrazol-2-yl)methyl]piperidine] | 7.1 | – | 48.1% (at 10sc) | – | –
76 | 78 | 72 | COc1ccc2cc([C@H]([C@H]3CCCNC3)n3ncnn3)ccc2c1 [Example 35, (3S)-3-[(S)-(6-methoxynaphthalen-2-yl)(2H-tetrazol-2-yl)methyl]piperidine] | 32.7 | – | – | – | –
44 | -4 | 5 | Fc1ccc2cc([C@H]([C@@H]3CCCNC3)n3ncnn3)ccc2c1 [Example 84, (3R)-3-[(S)-(6-fluoronaphthalen-2-yl)(2H-tetrazol-2-yl)methyl]piperidine] | – | – | – | – | –
86 | 2 | 6 | Fc1ccc2cc([C@@H]([C@H]3CCCNC3)n3ncnn3)ccc2c1 [Example 72, (3S)-3-[(R)-(6-fluoronaphthalen-2-yl)(2H-tetrazol-2-yl)methyl]piperidine] | 46.7 | – | – | – | –
84 | 63 | 87 | c1ccc2cc([C@@H]([C@@H]3CCCNC3)n3nccn3)ccc2c1 [Example 13, (3R)-3-[(R)-naphthalen-2-yl(2H-1,2,3-triazol-2-yl)methyl]piperidine] | 9.4 | – | – | – | 71.8
59 | 84 | 55 | c1ccc2cc([C@H]([C@H]3CCCNC3)n3nc4ccccc4n3)ccc2c1 [Example 80, 2-{(S)-naphthalen-2-yl[(3S)-piperidin-3-yl]methyl}-2H-benzotriazole] | – | – | – | – | –
97 | 81 | 90 | Clc1ccc2cc([C@@H]([C@@H]3CCCNC3)n3ncnn3)ccc2c1 [Example 67, (3R)-3-[(R)-(6-chloronaphthalen-2-yl)(2H-tetrazol-2-yl)methyl]piperidine] | 2.4 | – | – | – | –

Compound | inhibition at 0.1 µM [1] [%] | inhibition at 0.1 µM [2] [%] | inhibition at 0.1 µM [3] [%] | inhibition in vivo at 30 mg/kg [4] [%] | Reduction % (number of marbles buried) at 20ip ([5]; 20ip) | Reduction % (number of writhing) at 10sc [6] | Reduction % at 30ip (number of marbles buried) ([5]; 30ip) [%] | Reduction % at 30sc (number of writhing) [6] [%]
c1ccc2cc([C@H]([C@H]3CCCNC3)n3ncnn3)ccc2c1 [Example 2, (3S)-3-[(S)-naphthalen-2-yl(2H-tetrazol-2-yl)methyl]piperidine] | 98 | 85 | 85 | 37.5 | 67.5% (at 20ip) | 60.6% (at 10sc) | – | –
